Results on 18 compounds are retold here after US9643967B2, “Pyrrolo[3,2-c]pyridine derivatives as TLR inhibitors” (TAKEDA PHARMACEUTICAL COMPANY LIMITED, priority 2013, dated 2017).

For assay [1], the target named is T1, mTLR7 (Mus musculus, UniProt P58681).
T1 construct: Splenocytes isolated from male C57/BL6 mice; from tissue; host or cells: splenocytes from the spleen of male C57BL/6 mice
T1 sequence (P58681 27-1050): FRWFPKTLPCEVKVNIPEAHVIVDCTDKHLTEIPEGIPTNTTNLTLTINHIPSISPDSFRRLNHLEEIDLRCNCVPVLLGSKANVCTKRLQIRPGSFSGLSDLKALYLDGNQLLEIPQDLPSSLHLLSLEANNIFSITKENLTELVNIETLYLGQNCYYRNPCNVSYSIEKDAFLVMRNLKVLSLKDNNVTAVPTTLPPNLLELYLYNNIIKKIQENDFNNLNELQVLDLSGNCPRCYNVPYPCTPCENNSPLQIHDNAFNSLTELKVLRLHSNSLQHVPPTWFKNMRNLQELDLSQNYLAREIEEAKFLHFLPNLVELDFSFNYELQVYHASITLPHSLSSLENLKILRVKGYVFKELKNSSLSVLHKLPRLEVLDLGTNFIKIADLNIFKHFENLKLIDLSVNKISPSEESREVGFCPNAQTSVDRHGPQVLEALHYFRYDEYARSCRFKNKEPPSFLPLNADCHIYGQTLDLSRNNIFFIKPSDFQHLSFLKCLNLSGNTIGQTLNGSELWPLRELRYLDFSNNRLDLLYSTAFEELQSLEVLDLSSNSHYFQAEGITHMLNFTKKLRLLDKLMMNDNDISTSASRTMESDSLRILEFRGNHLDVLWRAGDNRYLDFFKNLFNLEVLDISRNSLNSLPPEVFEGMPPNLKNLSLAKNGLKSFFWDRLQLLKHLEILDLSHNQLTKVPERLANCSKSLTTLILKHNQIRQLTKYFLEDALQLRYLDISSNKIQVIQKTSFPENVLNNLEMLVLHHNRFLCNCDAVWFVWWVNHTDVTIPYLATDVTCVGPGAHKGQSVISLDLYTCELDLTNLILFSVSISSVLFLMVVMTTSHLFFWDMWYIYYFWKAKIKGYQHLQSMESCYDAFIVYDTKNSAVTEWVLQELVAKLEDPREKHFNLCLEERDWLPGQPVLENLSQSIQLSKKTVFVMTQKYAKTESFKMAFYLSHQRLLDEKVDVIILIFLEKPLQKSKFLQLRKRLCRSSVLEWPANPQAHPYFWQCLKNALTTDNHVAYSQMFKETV
Nature of the assay: mTLR7 antagonism (IL-6 and TNF-α release assay) in mouse splenocytes, R0006/DOTAP stimulated. The class given is cell-based. The note with it: 1 μM, mouse splenocytes. An outline of the steps:
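C57BL6 splenocytes (0.2 million/well) preincubated 30 min with compounds (30 μM to 1 nM, 0.3% DMSO), then stimulated with R0006/DOTAP liposome complex at 1 μg/ml final, overnight, 37 °C, 5% CO2. IL-6 and TNF-α in supernatant by ELISA; IC50 from inhibition curves.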

For assay [2], the system named is lupus-prone MRL lpr/lpr mice. Nature of the assay: Mouse lupus disease model, anti-dsDNA IgG titers (ELISA). Format: in vivo. The note with it: female MRL/lpr mice; for mean anti-dsDNA IgG titers after 6 weeks of treatment: oral QD, 3, 10 and 30 mg/kg. As to the method:
Mouse Lupus Disease Model
Examples B6 and B11 were tested in well studied mouse model of lupus, lupus-prone MRL lpr/lpr mice that develop disease similar to human SLE [J Exp Med., 1978, 148 (5), 1198-1215]. These mice develop spontaneous systemic autoimmunity with both molecular (IFN signature) and clinical (autoantibody production and glomerulonephritis) features similar to human SLE. Anti-dsDNA antibodies are correlated with human SLE and the reduction in anti-dsDNA antibodies is believed to be of potential clinical benefit. Positive TLR7 and/or TLR9 target validation results have been reported for this disease model.
Mouse Lupus Disease Model Strain:
Female MRL/lpr mice were purchased from Jackson Laboratories (USA) which manifest spontaneous lupus disease. Female MRL/lpr mice were treated for 9 weeks by oral route once a day with TLR-7/9 antagonists [Examples B6 and B11] at 3, 10 and 30 mg/kg doses. Prednisolone (2 mg/kg, P.O., QD) was used as a positive control during the studies. At the end of treatment period, animals were sacrificed and blood samples were collected to estimate anti-dsDNA IgG titers using anti-dsDNA IgG ELISA kit, Alpha Diagnostics, USA.

[3] abbreviates: IL-6 release, read-out: mTLR7 inhibitory activity (% at 1 μM), IL-6.
The mark [4] stands for this setting: TNF-α release, read-out: mTLR7 inhibitory activity (% at 1 μM), TNF-α.

Structures are written as SMILES. Like-named read-outs stand apart in the source and are kept apart here.

In the case of `Cc1nc(-c2ccc(N3CCN(C(C)C)CC3)cc2)c2cc(CCN3CCOCC3)[nH]c2c1C` [Example B6, 4-[2-[4-[4-(4-isopropylpiperazin-1-yl)phenyl]-6,7-dimethyl-1H-pyrrolo[3,2-c]pyridin-2-yl]ethyl]morpholine], the inhibition at 1 µM in assay [1] (setting [3]) and in assay [1] (setting [4]) was 100% each time. Moreover, the “anti-dsDNA IgG after 9 weeks of treatment” value in assay [2] (10 mg/kg once daily oral, 9 weeks, 10 mg/kg) was “Significant reduction”. Moreover, in assay [2], the “mean anti-dsDNA IgG titers after 6 weeks of treatment” value is given as “trend towards dose dependent reduction”.

For the compound `Cc1cc2c(cc(CCN3CCOCC3)n2C)c(-c2ccc(N3CCN(C(C)C)CC3)cc2)n1` [Example B11, 4-[2-[4-[4-(4-isopropylpiperazin-1-yl)phenyl]-1,6-dimethyl-pyrrolo[3,2-c]pyridin-2-yl]ethyl]morpholine], the inhibition at 1 µM in assay [1] (setting [3]) and in assay [1] (setting [4]) was 100% in each case. Also, the “mean anti-dsDNA IgG titers after 6 weeks of treatment” value in assay [2] is on record as “dose dependent reduction”.

`c1cc2[nH]c(CN3CCOCC3)cc2c(-c2ccc(N3CCNCC3)cc2)n1` [Example A42, 4-[[4-(4-(piperazin-1-yl)phenyl)-1H-pyrrolo[3,2-c]pyridin-2-yl]methyl] morpholine]: the inhibition at 1 µM amounted to 34% in assay [1] (setting [3]) and 9% in assay [1] (setting [4]).

Take `CN1CCN(c2ccc(-c3nc(C4CC4)cc4[nH]c(CN5CCOCC5)cc34)cc2)CC1` [Example A34, 4-[[6-cyclopropyl-4-[4-(4-methylpiperazin-1-yl)phenyl]-1H-pyrrolo[3,2-c]pyridin-2-yl]methyl] morpholine]: the inhibition at 1 µM in assay [1] (setting [4]) stood at 100%.

As for `CN1CCN(c2cccc(-c3nccc4[nH]c(CN5CCOCC5)cc34)c2)CC1` [Example A61, 4-[[4-[3-(4-methylpiperazin-1-yl)phenyl]-1H-pyrrolo[3,2-c]pyridin-2-yl]methyl]morpholine], the inhibition at 1 µM was determined as 78% in assay [1] (setting [3]) and 74% in assay [1] (setting [4]).

Take `COc1cc(-c2nc(C)cc3c2cc(CCN2CCOCC2)n3C)ccc1N1CCN(C(C)C)CC1` [Example B22, 4-[2-[4-[4-(4-isopropylpiperazin-1-yl)-3-methoxy-phenyl]-1,6-dimethyl-pyrrolo[3,2-c]pyridin-2-yl]ethyl]morpholine]: the inhibition at 1 µM in assay [1] (setting [3]) and in assay [1] (setting [4]) was 100% each time.

As for `CCN1CCN(c2ccc(-c3nc(C)cc4[nH]c(CN5CCOCC5)cc34)cc2)CC1` [Example A5, 4-[[4-[4-(4-ethylpiperazin-1-yl)phenyl]-6-methyl-1H-pyrrolo[3,2-c]pyridin-2-yl]methyl] morpholine], the inhibition at 1 µM in assay [1] (setting [3]) and in assay [1] (setting [4]) was 100% each time.

For `CN1CCN(c2ccc(-c3nccc4[nH]c(CCCN5CCOCC5)cc34)cc2)CC1` [Example C2, 4-[3-[4-[4-(4-methylpiperazin-1-yl)phenyl]-1H-pyrrolo[3,2-c]pyridin-2-yl]propyl]morpholine], in assay [1] (setting [4]), the inhibition at 1 µM came out at 100%.

`Cc1cc2[nH]c(CCCN3CCOCC3)cc2c(-c2ccc(N3CCN(C(C)C)CC3)cc2)n1` [Example C3, 4-[3-[4-[4-(4-isopropylpiperazin-1-yl)phenyl]-6-methyl-1H-pyrrolo[3,2-c]pyridin-2-yl]propyl]morpholine]: the inhibition at 1 µM in assay [1] (setting [3]) and in assay [1] (setting [4]) was 100% in each case.

Take `CC(C)N1CCN(Cc2ccc(-c3nccc4[nH]c(CN5CCOCC5)cc34)cc2)CC1` [Example A55, 4-[[4-[4-[(4-isopropylpiperazin-1-yl)methyl]phenyl]-1H-pyrrolo[3,2-c]pyridin-2-yl]methyl]morpholine]: the inhibition at 1 µM in assay [1] (setting [3]) amounted to 100%; in assay [1] (setting [4]) it was 33%.

As to `Cc1cc2c(cc(CCN3CCOCC3)n2C)c(-c2cccc(N3CCN(C(C)C)CC3)c2)n1` [Example B21, 4-[2-[4-[3-(4-isopropylpiperazin-1-yl)phenyl]-1,6-dimethyl-pyrrolo[3,2-c]pyridin-2-yl]ethyl]morpholine], the inhibition at 1 µM in assay [1] (setting [3]) and in assay [1] (setting [4]) was 100% throughout.

As for `Cc1cc2c(cc(CCN3CCOCC3)n2C)c(C2CCC(N3CCN(C(C)C)CC3)CC2)n1` (stereo not shown) [Example B26, 4-[2-[4-[4-(4-isopropylpiperazin-1-yl)cyclohexyl]-1,6-dimethyl-pyrrolo[3,2-c]pyridin-2-yl]ethyl]morpholine], the “mTLR7 inhibitory activity (% at 1 μM), IL-6” value in assay [1] (IL-6 release) is listed as 62%. Besides, the “mTLR7 inhibitory activity (% at 1 μM), TNF-α” value in assay [1] (TNF-α release) was determined as 47%.

For `Cc1cc2c(cc(CCN3CCOCC3)n2C)c(-c2ccc(N3CCN(C(C)C)[C@@H](C)C3)cc2)n1` [Example B23, 4-[2-[4-[4-[(3S)-4-isopropyl-3-methyl-piperazin-1-yl]phenyl]-1,6-dimethyl-pyrrolo[3,2-c]pyridin-2-yl]ethyl]morpholine], the inhibition at 1 µM in assay [1] (setting [3]) and in assay [1] (setting [4]) was 100% throughout.

For `Cc1cc2[nH]c(CN3CCC4(CC3)CC(C)C4)cc2c(-c2ccc(N3CCN(C(C)C)CC3)cc2)n1` [Example A30, 4-[4-(4-isopropylpiperazin-1-yl)phenyl]-6-methyl-2-[(2-methyl-7-azaspiro[3.5]nonan-7-yl)methyl]-1H-pyrrolo[3,2-c]pyridine], the inhibition at 1 µM in assay [1] (setting [3]) and in assay [1] (setting [4]) was 100% each time.

For the compound `CC(C)N1CCN(c2ccc(-c3nccc4[nH]c(CN5CC(F)C5)cc34)cc2)CC1` [Example A16, 2-[(3-fluoroazetidin-1-yl)methyl]-4-[4-(4-isopropylpiperazin-1-yl)phenyl]-1H-pyrrolo[3,2-c]pyridine], the values for the inhibition at 1 µM in assay [1] (setting [3]) and in assay [1] (setting [4]) were 100% and 99%, respectively.

Take `c1cc2[nH]c(CN3CCOCC3)cc2c(-c2ccc(N3CCN(C4COC4)CC3)cc2)n1` [Example A81, 4-[[4-[4-[4-(oxetan-3-yl)piperazin-1-yl]phenyl]-1H-pyrrolo[3,2-c]pyridin-2-yl]methyl]morpholine]: the inhibition at 1 µM in assay [1] (setting [3]) is 25%; in assay [1] (setting [4]), 24%.

With `CC(C)N1CCN(c2cccc(-c3nccc4[nH]c(CN5CCOCC5)cc34)c2)CC1` [Example A57, 4-[[4-[3-(4-isopropylpiperazin-1-yl)phenyl]-1H-pyrrolo[3,2-c]pyridin-2-yl]methyl]morpholine], the inhibition at 1 µM in assay [1] (setting [3]) came to 80%; in assay [1] (setting [4]) it was 79%.

On to `Cc1cc2c(cc(CCN3CCOCC3)n2C)c(-c2ccc(N3CCN(C(C)C)CC3)cc2C)n1` [Example B15, 4-[2-[4-[4-(4-isopropylpiperazin-1-yl)-2-methyl-phenyl]-1,6-dimethyl-pyrrolo[3,2-c]pyridin-2-yl]ethyl]morpholine], for which the inhibition at 1 µM was determined as 88% in assay [1] (setting [3]) and 83% in assay [1] (setting [4]).
